Where “and” joins values, the source holds several entries; their conditions need not be identical. Equal values may be shown once.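 The compound was tested at five concentrations on cells cultured in 96-well plates, with a 48-hour exposure period. GI50: concentration for 50% inhibition of growth. TGI marks complete inhibition of growth.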 *1 amine or outer side, *2 acyl side, *3 side chain or, on linkers, in order; H or OH if unused. Where a SMILES comes first, the peptide text is derived from it. [ ]: non-standard residue; d: D form. X32 = C[C@H](N[*:1])C(=O)C(C)(C)C(=O)[*:2]; Hmpa(2S,3S) = CC[C@H](C)[C@H](O)C(=O)O; NMeY = CN[C@@H](Cc1ccc(O)cc1)C(=O)O; NMeL = CN[C@@H](CC(C)C)C(=O)O; NMeV = CN[C@H](C(=O)O)C(C)C; βAla = NCCC(=O)O
How the values were obtained:
Assay in all cases: NCI anticancer screen, dose series, 48 h
A549 NSCLC = system: A549 NSCLC
HCT-116 colon = system: HCT-116 colon
MDA-MB-231 breast = system: MDA-MB-231 breast
MDA-MB-435 = system: MDA-MB-435
MOLT-4 leukemia = system: MOLT-4 leukemia
OVCAR-4 ovarian = system: OVCAR-4 ovarian
OVCAR-8 ovarian = system: OVCAR-8 ovarian
RXF 393 renal = system: RXF 393 renal
SF-268 CNS = system: SF-268 CNS
TK-10 renal = system: TK-10 renal

| SMILES | TGI (A549 NSCLC) | TGI (HCT-116 colon) | TGI (MDA-MB-231 breast) | TGI (MDA-MB-435) | TGI (MOLT-4 leukemia) | TGI (OVCAR-4 ovarian) | TGI (OVCAR-8 ovarian) | TGI (RXF 393 renal) | TGI (SF-268 CNS) | TGI (TK-10 renal) | GI50 (A549 NSCLC) | GI50 (HCT-116 colon) | GI50 (MDA-MB-231 breast) | GI50 (MDA-MB-435) | GI50 (MOLT-4 leukemia) | GI50 (OVCAR-8 ovarian) | GI50 (SF-268 CNS) |
| --- | --- | --- | --- | --- | --- | --- | --- | --- | --- | --- | --- | --- | --- | --- | --- | --- | --- |
| COc1ccc2nc(-c3ccc(O)cc3)sc2c1 | > 100 µM | 32.7 µM | 46.9 µM | 56 µM | 78.3 µM | 44.5 µM | 45.1 µM | 40.9 µM | 49.5 µM | 70.2 µM | – | – | – | – | – | – | – |
| CC[C@H](C)[C@@H]1OC(=O)CCNC(=O)[C@@H](C)NC(=O)C(C)(C)C(=O)[C@H](C)NC(=O)[C@H](Cc2ccc(OC)cc2)N(C)C(=O)[C@H](C(C)C)N(C)C(=O)CNC(=O)[C@H](CC(C)C)N(C)C(=O)CNC1=O (cyclo(G[NMeL]G[NMeV][NMeY](Me)[X32][dA][βAla][Hmpa(2S,3S)])) | > 50 µM | > 27.8 µM | 11.2 µM | > 42.7 µM | > 26.9 µM | 3.51 µM | 23.7 µM | 2 µM | 6.54 µM | 8 µM | – | – | – | – | – | – | – |
| CCCCCCCCCCCCCCCCCCN(C)CC(COP(=O)([O-])OCC[N+](C)(C)C)OC (configuration not stated) | 46.8 µM | 43.3 µM | > 100 µM | 97 µM | 11.3 µM | 29.6 µM | 44.8 µM | 8.55 µM | 27.5 µM | 8.46 µM | – | – | – | – | – | – | – |
| Cc1ccc(S(=O)(=O)N2CCCSCC2)cc1 | > 100 µM | > 100 µM | > 100 µM | > 100 µM | > 100 µM | > 100 µM | > 100 µM | > 100 µM | > 100 µM | > 100 µM | – | – | – | – | – | – | – |
| C[C@@H]1CC[C@@H]2[C@@H](C1)O[C@@H]([C@H](C)OCc1ccccc1)SC2(C)C | > 100 µM | 29.3 µM | 40.1 µM | > 100 µM | 34.9 µM | > 100 µM | > 100 µM | 33.4 µM | > 100 µM | > 100 µM | – | – | – | – | – | – | – |
| C/C(=N\NC(=S)NCCCNC(=S)N/N=C(\C)c1ccccn1)c1ccccn1 | > 49.8 µM | 24 µM | > 49.9 µM | > 43.5 µM | > 100 µM | > 54 µM | 10.9 µM | 14.7 µM | 21 µM | 24.2 µM | – | – | – | – | – | – | – |
| O=c1/c(=C/c2ccc(-c3ccc(Cl)cc3Cl)o2)sc2n1[C@@H](c1ccc(Cl)cc1)C=C(c1cc(F)c(Cl)cc1Cl)N=2 | > 100 µM | > 100 µM | 59.2 µM | > 100 µM | 67.9 µM | > 100 µM | > 100 µM | > 100 µM | > 100 µM | > 100 µM | – | – | – | – | – | – | – |
| CCOC(=O)c1c(N2CCOCC2)[nH]c(=O)c(C(c2ccco2)c2c(O)c(C(=O)OCC)c(N3CCOCC3)[nH]c2=O)c1O | > 100 µM | > 100 µM | > 100 µM | > 100 µM | > 100 µM | > 100 µM | > 100 µM | > 100 µM | > 100 µM | > 100 µM | – | – | – | – | – | – | – |
| CC(=O)Nc1ccc(C2SCc3nc4ccccc4n32)cc1 (configuration not stated) | > 100 µM | > 100 µM | > 100 µM | > 100 µM | > 100 µM | > 100 µM | > 100 µM | > 100 µM | > 100 µM | > 100 µM | – | – | – | – | – | – | – |
| CCCCCCCCCCCCC(O)[C@H]1CC[C@H](C(O)CCCCCC(=O)CCCCC2CC(C(C)=O)C(=O)O2)O1 (some centres not stated) | > 100 µM | 36 µM | 44.6 µM | 35.6 µM | 23.4 µM | 39.4 µM | > 53.9 µM | 22.2 µM | 53.4 µM | > 68.6 µM | 2.33 µM | 7.23 µM | 2.8 µM | 1.92 µM | 2.81 µM and 2.14 µM | 4.34 µM | 3.43 µM |
| CC(=O)c1cc2ccccc2oc1=O | > 100 µM | > 100 µM | > 100 µM | > 100 µM | > 100 µM | > 100 µM | > 100 µM | > 100 µM | > 100 µM | > 100 µM | – | – | – | – | – | – | – |
| Nc1onc2c1Cc1c(noc1N)-c1ccccc1-2 | > 100 µM | > 100 µM | > 100 µM | > 100 µM | > 100 µM | > 100 µM | > 100 µM | > 100 µM | > 100 µM | > 100 µM | – | – | – | – | – | – | – |
| C=CC(Cl)(CBr)CCC(Br)C(C)(C)Cl (configuration not stated) | 89.3 µM | 25.4 µM | 27.6 µM | 30.3 µM | 21.1 µM | 34.1 µM | 31.5 µM | 31.2 µM | 48.4 µM | 38.6 µM | – | – | – | – | – | – | – |
| N[C@H]1CCCC[C@@H]1N1C(=O)c2ccccc2C1(O)c1ccc(Cl)cc1 (some centres not stated) | 25.2 µM | 21.9 µM | 27.5 µM | 21.1 µM | 19.2 µM | 24.6 µM | 32.4 µM | 20.4 µM | 27.5 µM | 26 µM | – | – | – | – | – | – | – |
| CO/N=C(\C)c1cccc(Nc2c3ccccc3nc3occc23)c1 | 57.3 µM | 21.2 µM | 26.1 µM | 6 µM | 37.9 µM | 18 µM | 66.4 µM | 5.87 µM | 31.8 µM | 48.8 µM | – | – | – | – | – | – | – |
| Cc1cc(=O)oc2c(CNC(Cc3ccccc3)C(=O)O)c(O)ccc12 (configuration not stated) | > 100 µM | > 100 µM | > 100 µM | > 100 µM | > 100 µM | > 100 µM | > 100 µM | > 100 µM | > 100 µM | > 100 µM | – | – | – | – | – | – | – |
| Cc1ccc(NC(=O)c2cc(S(=O)(=O)Nc3nc4ncccc4[nH]3)c(SSc3cc(Cl)c(C(=O)Nc4ccc(C)cc4)cc3S(=O)(=O)Nc3nc4ncccc4[nH]3)cc2Cl)cc1 | > 100 µM | > 100 µM | > 100 µM | > 100 µM | > 100 µM | > 100 µM | > 100 µM | > 100 µM | > 100 µM | > 100 µM | – | – | – | – | – | – | – |
| O=C(NCCCCCCNC(=O)c1cc(-c2ccccc2)nc2ccccc12)c1cc(-c2ccccc2)nc2ccccc12 | > 100 µM | > 100 µM | > 100 µM | > 100 µM | > 100 µM | > 100 µM | > 100 µM | > 100 µM | > 100 µM | > 100 µM | – | – | – | – | – | – | – |
| NC(N)=Nc1ccc(CC(N)C(=O)O)cc1 (configuration not stated) | > 12.5 µM | > 12.5 µM | > 12.5 µM | > 12.5 µM | > 12.5 µM | > 12.5 µM | > 12.5 µM | > 12.5 µM | > 12.5 µM | > 12.5 µM | – | – | – | – | – | – | – |

— PubChem BioAssay (NCI)
